{"source": "patent US6989375B2", "about": "“Enhanced expression of transgenes” (priority 1996, dated 2006)", "key": {"H460 cells [1]": {"tested_on": "H460 cells", "test": "β-gal expression by X-gal staining after Ad/CMV/β-gal infection of CDDP-treated cells", "format": "cell-based, human", "description": "Gene Delivery Protocol: In vitro gene delivery was performed by incubating cells in six-well plates (Falcon Plastics, Lincoln Park, N.J.) for two hours with Adv/CMV/β-gal in appropriate medium supplemented with 2% FCS. The multiplicity of infection (MOI: number of viral particles per target cell) was based on cell counts of untreated wells. Fresh, complete medium with the appropriate concentration of FCS was then added to the wells at the end of the infection period and cells were then incubated for 20 hours at 37° C., 5% CO2. After washing the cells with ice cold PBS, the cells were fixed with ice-cold 1.25% glutaraldehyde and stained with X-gal (5-bromo-4-chloro-3-indolyl-β-d-galactoside; Gibco BRL) as previously described (MacGregor et al., 1987). The transduction efficiency by Adv/CMV/β-gal was determined by the percentage of positive stained cells (blue) for β-galactosidase activity (1000 cells counted per well).\nTime Course and Dose Response: To determine the time course of enhancement, H1299 and H460 cells were seeded in 6-well plates (2×10^5 cells/2 mls/well). After an overnight incubation period (37° C., 5% CO2), the initial medium was replaced with freshly prepared media (2 ml) containing 0.062 μg/ml CDDP (Sigma Chemicals, St. Louis, Mo.) (CDDP was prepared fresh by dissolving in distilled water) and the cells were then incubated for 24 hours at 37° C., with 5% CO2. CDDP-treated cells were then washed twice with PBS and subsequently infected with Ad/CMV/β-gal (MOI=1 for H1299 and MOI=5 for H460) on days 0, 1, 2, 3, 4, 5 or 6 following CDDP removal, to determine the time point at which maximal enhancement of expression was occurring. To establish the dose of CDDP needed to produce maximum enhancement, the cells were treated with different concentrations of CDDP (serial, 1:4 dilutions, ranging from 4 μg/ml to 0.0002 μg/ml, 5 ml per 60 mm dish) for 24 hours and subsequently incubated with Ad/CMV/β-gal 48 hours after removal of CDDP. […]"}, "H460 cells [2]": {"tested_on": "H460 cells", "test": "Quantitation of β-gal gene expression by ONPG assay at increasing MOI", "format": "cell-based, human", "conditions": "for β-gal gene expression (ONPG): CDDP = treated cells, Ad/CMV/β-gal = control cells without CDDP", "description": "(§1) Quantitation of β-gal Gene Expression: Adenoviral infection was performed 2 days after exposure to CDDP (0.062 μg/ml×24 hours), with cell extracts being obtained 24 hours later and quantitatively assayed for the expression of the β-galactosidase gene using O-nitrophenyl β-d-galactoside (ONPG) as a substrate (MacGregor et al., 1987). The magnitude of CDDP-induced enhancement of gene expression at a given MOI was determined by calculating the enhancement index: [formula] In Vivo CDDP-Induced Enhancement of β-gal Gene Expression\n(§2) To determine if prior incubation of target cells with CDDP would result in an increase in the ability of cells to take up gene-delivering vectors or an increase in the expression of successfully delivered genes, β-gal gene expression was quantitated in H1299 and H460 cell lines treated with CDDP and then infected with Ad/CMV/β-gal at increasing MOI's. If CDDP mediates an enhancement of adenovirus uptake as compared to non-treated controls, then there should be a proportional increase in enhancement indices with increasing MOI's. […] Similarly, β-gal gene expression in CDDP-treated H460 cells increased from 0.28±0.06 to 12.2±2.1 U/mg protein, as compared to β-gal gene expression in control H460 cells of 0.056±0.016 to 7.6±1.8 U/mg protein. The enhancement indices in H460 cells, therefore, decreased from a value of 5 at an MOI of 5, to a value of 1.6 at an MOI of 100 (FIG. 2B). This observation implies that CDDP induces an increase in the expression of successfully delivered genes and not an increase in adenovirus uptake."}, "H1299 cells": {"tested_on": "H1299 cells", "test": "Quantitation of β-gal gene expression by ONPG assay at increasing MOI", "format": "cell-based, human", "conditions": "for Enhancement index: CDDP 0.062 μg/ml×24 h; for β-gal activity (ONPG): CDDP = cells treated 0.062 μg/ml×24 h, infected 2 days later, Ad/CMV/β-gal = control cells without CDDP", "description": "as §1, §2"}, "[3]": {"tested_on": "subcutaneous H1299 tumors", "test": "In vivo CDDP-induced enhancement of β-gal gene expression in subcutaneous tumors", "set-up": "species or system nude mice", "description": "Subcutaneous (SC) tumor nodules were created by injecting 1×10^7 H1299 cells suspended in 100 μl of PBS into the dorsal flank SC tissue of nude mice (nu/nu, Charles River, Wilmington, Mass.) that had received 350 Rads of total body irradiation. Tumors, approximately 250 mm^3 in size, consistently formed within 3 to 4 weeks of tumor cell implantation. Intratumoral injections of Ad/CMV/β-gal (5×10^8 viral particles) were done at 0, 2, 4, and 6 days following an intraperitoneal injection of CDDP (5 μg/g body weight in 100 μl of PBS) or PBS only (n=4 per groups). The tumors were excised 48 hours after adenovirus injection, washed in cold PBS, embedded in tissue freezing medium (Fisher Scientific, Houston, Tex.) and snap-frozen by immersion in 2-methylbutane which was chilled over liquid nitrogen. Serial frozen sections (8μ, thick) of the tumor mass obtained at 2-mm intervals were fixed and stained with X-gal as previously described (Ponder et al., 1991) and then counterstained with nuclear fast red (PolyScientific, Bay Shore, N.Y.). Quantitative assessment of β-gal gene expression (blue cells) was determined by digital image analysis (Samba 4000, Immuno Software, Version 3.0; Image Products International, Inc., Chantilly, Va.) for each tumor section. In vivo β-gal gene transduction of tumor masses was calculated as the mean of the percentage of blue cells per surface area of representative sections. Tumor-bearing animals receiving intraperitoneal injection of PBS and subsequent intratumoral injection of Ad/CMV/β-gal at identical time points, served as controls. The magnitude of enhancement was calculated by dividing values from CDDP and Ad/CMV/β-gal treated tumors by values from Ad/CMV/β-gal control treated tumors."}}, "data": [{"smiles": "N.N.[Cl][Pt][Cl]", "note": "[CDDP, cis-dichlorodimminocisplatin]", "values": [{"measurement": "CDDP concentration at which maximal enhancement of β-gal gene expression occurred", "setting": "H460 cells [1]; 24 h exposure, infected 48 hours after CDDP removal", "value": 0.062, "unit": "µg/mL"}, {"measurement": "Time of gene transfer after drug treatment for maximal enhancement", "setting": "H460 cells [1]; CDDP 0.062 μg/ml", "value": "about 48 hours"}, {"measurement": "Enhancement of β-gal gene expression", "setting": "H460 cells [1]; CDDP at 0.0039 and 1 μg/ml, infected 48 hours after CDDP removal", "value": "also an enhancement"}, {"measurement": "β-gal gene expression (ONPG)", "setting": "H460 cells [2]; MOI 5", "value": "0.28±0.06", "unit": "U/mg protein"}, {"measurement": "β-gal gene expression (ONPG)", "setting": "H460 cells [2]; MOI 100", "value": "12.2±2.1", "unit": "U/mg protein"}, {"measurement": "Enhancement index", "setting": "H460 cells [2]; MOI of 5", "value": 5}, {"measurement": "Enhancement index", "setting": "H460 cells [2]; MOI of 100", "value": 1.6}, {"measurement": "Enhancement index", "setting": "H1299 cells; MOI 5", "value": 3}, {"measurement": "β-gal activity (ONPG)", "setting": "H1299 cells; MOI 5", "value": "2.2±0.40", "unit": "U/mg protein"}, {"measurement": "Enhancement index", "setting": "H1299 cells; MOI 100", "value": 2.5}, {"measurement": "β-gal activity (ONPG)", "setting": "H1299 cells; MOI 100", "value": "42.0±2.6", "unit": "U/mg protein"}, {"measurement": "Percentage of positively stained cells in tumors", "setting": "[3]; Ad/CMV/β-gal injected 2 days after CDDP 5 μg/g ip (CDDP) or PBS (Ad/CMV/β-gal control)", "value": "46.0±4.3", "unit": "%"}, {"measurement": "Percentage of positively stained cells in tumors", "setting": "[3]; Ad/CMV/β-gal injected 4 days after CDDP 5 μg/g ip (CDDP) or PBS (Ad/CMV/β-gal control)", "value": "70.2±11", "unit": "%"}, {"measurement": "Percentage of positively stained cells in tumors", "setting": "[3]; Ad/CMV/β-gal injected 6 days after CDDP 5 μg/g ip (CDDP) or PBS (Ad/CMV/β-gal control)", "value": "23.4±5", "unit": "%"}, {"measurement": "Change in β-gal gene expression", "setting": "[3]; CDDP 5 μg/g ip and Ad/CMV/β-gal concurrently administered (day 0)", "value": "no change"}, {"measurement": "Fold increase of positively stained cells over respective control", "setting": "[3]; gene transfer 2 days after CDDP administration", "value": 1.6, "unit": "fold"}, {"measurement": "Fold increase of positively stained cells over respective control", "setting": "[3]; gene transfer 4 days after CDDP administration", "value": 2.8, "unit": "fold"}]}]}
